≈ marks a conversion by molar mass, not a printed value. Where two headings read alike, the source gives them in different places.
Assays:
Format in all cases: cell-based
E. faecalis strains = assay: MIC against E. faecalis strains (Table M8); settings: Enterococcus faecalis, E. faecalis 29212
H. influenzae strains = assay: MIC against H. influenzae strains (Table M8); settings: Haemophilus influenzae
Outline: (§1)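 Following CLSI guidelines, each compound was serially diluted in broth against the bacterial strain and the MIC recorded. Azithromycin was included in parallel as a comparator macrolide.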

A. baumannii strains = assay: MIC against A. baumannii strains (Table M8); settings: for MIC: Acinetobacter baumannii, BAA747, A. baumannii BAA747-1
[1] = test system: SA101 S. aureus ATCC29213; assay: broth dilution MIC, S. aureus SA101; settings: Staphylococcus aureus, ATCC29213, SA101 S. aureus ATCC29213; read-out: MIC
Text: (§2) We have collected MIC data for a total of 50 novel macrolides that this platform has produced against over 21 unique strains of B. subtilis, E. coli, S. aureus, S. pneumoniae, and H. influenzae, including several multidrug-resistant strains, with a special focus on macrolide resistant mechanisms (vide supra). Azithromycin was included as a control macrolide. CLSI standard procedures for broth dilution MIC determination were used. […] These genotypes can be constitutive or inducible. The finding that C4-epi (unnatural) isomers of the “azaketolide” macrolide class have enhanced activities relative to C4 natural isomers is very exciting.

K. pneumoniae strains = assay: MIC against K. pneumoniae strains (Table M8); settings: Klebsiella pneumoniae, K. pneumoniae 10031
EC882 E. coli imp = assay: broth dilution MIC, E. coli EC882; settings: Escherichia coli
Text: as §2

BS1725 B. subtilis ermC = assay: broth dilution MIC, B. subtilis BS1725; settings: Bacillus subtilis
Text: as §2

EC107 E. coli ATCC25922 = assay: broth dilution MIC, E. coli EC107; settings: Escherichia coli, read-out: MIC
Text: as §2

E. coli strains = assay: MIC against E. coli strains (Table M7); settings: Escherichia coli, ATCC25922, E. coli ATCC 25922
Outline: as §1

S. pneumoniae strains = assay: MIC against S. pneumoniae strains (Tables M7, M8); settings: Streptococcus pneumoniae
Text: CLSI standard procedures for broth dilution MIC determination were used. […] These genotypes can be constitutive or inducible.

[2] = test system: BS1723 B. subtilis BS168 WT wild type; assay: broth dilution MIC, B. subtilis BS1723; settings: Bacillus subtilis
Text: as §2

S. aureus strains = assay: MIC against S. aureus strains (Table M7); settings: for MIC: Staphylococcus aureus
Outline: as §1

EC878 E. coli tolC = assay: broth dilution MIC, E. coli EC878; settings: Escherichia coli
Text: as §2

[3] = test system: S. aureus (Newman, clinical isolate); assay: MIC, S. aureus Newman; settings: Staphylococcus aureus
Text: as §2

E. coli (MC4100) = assay: MIC, E. coli MC4100; settings: Escherichia coli
Text: as §2

[4] = H. influenzae 49247, read-out: MIC H. influenzae (49247)
[5] = H. influenzae 49766, read-out: MIC H. influenzae (49766)
[6] = S. pneumoniae 160, read-out: MIC S. pneumonae (160)
[7] = S. pneumoniae 1509, read-out: MIC S. pneumoniae (1509)
[8] = S. pneumoniae 1533, read-out: MIC S. pneumoniae (1533)
[9] = S. pneumoniae 1537, read-out: MIC S. pneumoniae (1537)
[10] = S. pneumoniae 49619, read-out: MIC S. pneumoniae (49619)
[11] = BS1723 B. subtilis BS168 WT wild type, read-out: MIC
[12] = ATCC29213, S. aureus ATCC 29213, read-out: MIC S. aureus (ATCC 29213)
[13] = S. aureus 506, read-out: MIC S. aureus (506)
[14] = S. aureus 1708, read-out: MIC S. aureus (1708)
[15] = USA300, S. aureus USA300, read-out: MIC S. aureus (USA300)

Compound | MIC (E. faecalis strains) | MIC (H. influenzae strains; [4]) | MIC (H. influenzae strains; [5]) | MIC (A. baumannii strains) | MIC [1] | MIC (K. pneumoniae strains) | MIC (EC882 E. coli imp) | MIC (BS1725 B. subtilis ermC; BS1725 B. subtilis ermC (+ery)) | MIC (EC107 E. coli ATCC25922) | MIC (E. coli strains) | MIC (S. pneumoniae strains; [6]) | MIC (S. pneumoniae strains; [7]) | MIC (S. pneumoniae strains; [8]) | MIC (S. pneumoniae strains; [9]) | MIC (S. pneumoniae strains; [10]) | MIC (S. aureus strains; [12]) | MIC (S. aureus strains; [13]) | MIC (S. aureus strains; [14]) | MIC (S. aureus strains; [15]) | MIC (EC878 E. coli tolC) | also measured
CC[C@H]1OC(=O)[C@H](C)C(=O)[C@H](C)[C@@H](O[C@@H]2OC(C)CC(N(C)C)C2O)[C@](C)(OC)C[C@@H](C)CN(C(C)=O)[C@H](C)[C@H]2N(CCCCn3cc(-c4cccc(N)c4)nn3)C(=O)O[C@]12C (stereo partly shown) [FSM-20767] | 4 µg/mL (≈ 4.6 µM) | 8 µg/mL (≈ 9.19 µM) | 16 µg/mL (≈ 18.4 µM) | > 32 µg/mL | 16 µg/mL (≈ 18.4 µM) | 32 µg/mL (≈ 36.8 µM) | 1 µg/mL (≈ 1.15 µM) | > 32 µg/mL | > 32 µg/mL | > 32 µg/mL | 2 µg/mL (≈ 2.3 µM) | > 32 µg/mL | > 32 µg/mL | > 32 µg/mL | 0.5 µg/mL (≈ 0.575 µM) | 16 µg/mL (≈ 18.4 µM) | > 32 µg/mL | 32 µg/mL (≈ 36.8 µM) | 32 µg/mL (≈ 36.8 µM) | 4 µg/mL (≈ 4.6 µM) | MIC (BS1725 B. subtilis ermC; BS1725 B. subtilis ermC (−ery)): 8 µg/mL (≈ 9.19 µM); MIC [2, 11]: 16 µg/mL (≈ 18.4 µM)
CC[C@H]1OC(=O)[C@H](C)C(=O)[C@H](C)[C@@H](O[C@@H]2OC(C)CC(N(C)C)C2O)[C@](C)(OC)C[C@@H](C)CN[C@H](C)[C@H]2N(CCCn3cc(-c4ccccn4)nn3)C(=O)O[C@]12C (stereo partly shown) [FSM-40348] |  |  |  |  |  |  |  |  |  |  |  |  |  |  |  |  |  |  |  |  | MIC ([3]; S. aureus (Newman, clinical isolate), round 1): 8 µg/mL (≈ 10 µM); MIC (E. coli (MC4100); round 1, read-out: MIC): > 32 µg/mL
CC[C@H]1OC(=O)[C@H](C)C(=O)[C@H](C)[C@@H](O[C@@H]2OC(C)CC(N(C)C)C2O)/C(C)=C/CN[C@H](C)[C@H]2N(CCCCn3cc(-c4cccc(N)c4)nn3)C(=O)O[C@]12C (stereo partly shown) [FSM-30624] |  |  |  |  |  |  |  |  |  |  |  |  |  |  |  |  |  |  |  |  | MIC ([3]; S. aureus (Neuman, clinical isolate), round 2): > 32 µg/mL; MIC (E. coli (MC4100); round 2, read-out: MIC): > 32 µg/mL
CC[C@H]1OC(=O)[C@H](C)C(=O)C[C@@H](O[C@@H]2OC(C)CC(N(C)C)C2O)[C@](C)(OC)C[C@@H](C)CN[C@H](C)[C@H]2N(CCCCn3cc(-c4cccc(N)c4)nn3)C(=O)O[C@]12C (stereo partly shown) [FSM-10781] | 8 µg/mL (≈ 9.83 µM) | 1 µg/mL (≈ 1.23 µM) | 8 µg/mL (≈ 9.83 µM) | 32 µg/mL (≈ 39.3 µM) | > 32 µg/mL | 8 µg/mL (≈ 9.83 µM) | 0.25 µg/mL (≈ 0.307 µM) | > 32 µg/mL | 16 µg/mL (≈ 19.7 µM) | 32 µg/mL (≈ 39.3 µM) | 2 µg/mL (≈ 2.46 µM) | > 32 µg/mL | > 32 µg/mL | > 32 µg/mL | 8 µg/mL (≈ 9.83 µM) | > 32 µg/mL | > 32 µg/mL | > 32 µg/mL | > 32 µg/mL | 1 µg/mL (≈ 1.23 µM) | MIC (BS1725 B. subtilis ermC; BS1725 B. subtilis ermC (−ery)): > 32 µg/mL; MIC [2, 11]: > 32 µg/mL
CC[C@H]1OC(=O)[C@H](C)C(=O)[C@H](C)[C@@H](O[C@@H]2OC(C)CC(N(C)C)C2O)[C@](C)(OC)C[C@@H](C)CN[C@H](C)[C@H]2N(CCCCn3cc(-c4nc5ccccc5s4)nn3)C(=O)O[C@]12C (stereo partly shown) [FSM-20711] | 1 µg/mL (≈ 1.15 µM) | 1 µg/mL (≈ 1.15 µM) | 8 µg/mL (≈ 9.19 µM) | > 32 µg/mL | 2 µg/mL (≈ 2.3 µM) | 4 µg/mL (≈ 4.6 µM) | 0.0312 µg/mL (≈ 0.0359 µM) | 32 µg/mL (≈ 36.8 µM) | 16 µg/mL (≈ 18.4 µM) | 16 µg/mL (≈ 18.4 µM) | 0.125 µg/mL (≈ 0.144 µM) | > 32 µg/mL | > 32 µg/mL | > 32 µg/mL | 0.5 µg/mL (≈ 0.575 µM) | 4 µg/mL (≈ 4.6 µM) | > 32 µg/mL | 4 µg/mL (≈ 4.6 µM) | 4 µg/mL (≈ 4.6 µM) | 0.5 µg/mL (≈ 0.575 µM) | MIC [2, 11]: 2 µg/mL (≈ 2.3 µM)
CC[C@H]1OC(=O)[C@H](C)[C@@H](O[C@H]2C[C@@](C)(OC)[C@@H](O)[C@H](C)O2)[C@H](C)[C@@H](O[C@@H]2O[C@H](C)C[C@H](N(C)C)[C@H]2O)[C@](C)(O)C[C@@H](C)C(=O)[C@H](C)[C@@H](O)[C@]1(C)O [Erythromycin, erythromycin, reference compound] | 2 µg/mL (≈ 2.73 µM) | 2 µg/mL (≈ 2.73 µM) | 8 µg/mL (≈ 10.9 µM) | 32 µg/mL (≈ 43.6 µM) | 0.5 µg/mL (≈ 0.681 µM) | 8 µg/mL (≈ 10.9 µM) | 2 µg/mL (≈ 2.73 µM) | > 32 µg/mL | > 32 µg/mL | > 32 µg/mL | 2 µg/mL (≈ 2.73 µM) | > 32 µg/mL | > 32 µg/mL | > 32 µg/mL | ≤ 0.0625 µg/mL | 0.5 µg/mL (≈ 0.681 µM) | > 32 µg/mL | > 32 µg/mL | > 32 µg/mL | 2 µg/mL (≈ 2.73 µM) | MIC A. baumannii (BAA747-1) (A. baumannii strains; A. baumannii BAA747-1): >32 µg/mL; MIC (BS1725 B. subtilis ermC; BS1725 B. subtilis ermC (−ery)): > 32 µg/mL; MIC [2]: 0.125 µg/mL (≈ 0.17 µM); MIC S. aureus (ATCC 29213) (S. aureus strains; S. aureus ATCC 29213): 0.25 µg/mL (≈ 0.341 µM); MIC (S. aureus strains; S. aureus 183, read-out: MIC S. aureus (183)): > 32 µg/mL
CC[C@H]1OC(=O)[C@H](C)C(=O)[C@H](C)[C@@H](O[C@@H]2OC(C)CC(N(C)C)C2O)[C@](C)(OC)C[C@@H](C)CN[C@H](C)[C@H]2N(CCCCn3cc(-c4cccnn4)nn3)C(=O)O[C@]12C (stereo partly shown) [FSM-20710] | 0.5 µg/mL (≈ 0.613 µM) | 0.5 µg/mL (≈ 0.613 µM) | 2 µg/mL (≈ 2.45 µM) | 16 µg/mL (≈ 19.6 µM) | 2 µg/mL (≈ 2.45 µM) | 4 µg/mL (≈ 4.91 µM) | 0.0625 µg/mL (≈ 0.0767 µM) | 32 µg/mL (≈ 39.3 µM) | 8 µg/mL (≈ 9.82 µM) | 8 µg/mL (≈ 9.82 µM) | 0.5 µg/mL (≈ 0.613 µM) | 16 µg/mL (≈ 19.6 µM) | > 32 µg/mL | > 32 µg/mL | 0.5 µg/mL (≈ 0.613 µM) | 2 µg/mL (≈ 2.45 µM) | > 32 µg/mL | 2 µg/mL (≈ 2.45 µM) | 4 µg/mL (≈ 4.91 µM) | 1 µg/mL (≈ 1.23 µM) | MIC [2, 11]: 2 µg/mL (≈ 2.45 µM)

From patent US9982005B2, “Macrolides and methods of their preparation and use” (President and Fellows of Harvard College, priority 2013, dated 2018)
